Values joined by “and” are separate entries in the source; they are usually repeats but may differ in a detail not shown here. Equal entries are not always repeated. Inconclusive results and toxic doses are left out. Cut-off read from the data, not from the text of the source: active = T/C of 150% or more; inactive = T/C below 125%.
System: L1210 leukemia ip in BDF1 mice, survival T/C
Assay: NCI In Vivo Anticancer Drug Screen. Data for tumor model L1210 Leukemia (intraperitoneal) in B6D2F1 (BDF1) mice
Settings: endpoint: mean survival time, higher = longer survival
Summary of the method: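 Each compound was tested against a transplantable tumor grown in mice. The endpoint was survival, with treated animals benchmarked against vehicle controls as a simple ratio.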

[1] = dose: 50.0 mg/kg/injection, schedule: Q04DX002 (ip), vehicle: Klucel (hydroxypropylcellulose) (HPC)
[2] = dose: 100.0 mg/kg/injection, schedule: Q04DX002 (ip), vehicle: Klucel (hydroxypropylcellulose) (HPC)
[3] = dose: 200.0 mg/kg/injection, schedule: Q04DX002 (ip), vehicle: Klucel (hydroxypropylcellulose) (HPC)
[4] = dose: 25.0 mg/kg/injection, schedule: Q01DX009 (ip), vehicle: Klucel (hydroxypropylcellulose) (HPC)
[5] = dose: 50.0 mg/kg/injection, schedule: Q01DX009 (ip), vehicle: Klucel (hydroxypropylcellulose) (HPC)
[6] = dose: 100.0 mg/kg/injection, schedule: Q04DX003 (ip), vehicle: Klucel (hydroxypropylcellulose) (HPC)
[7] = dose: 200.0 mg/kg/injection, schedule: Q04DX003 (ip), vehicle: Klucel (hydroxypropylcellulose) (HPC)
[8] = dose: 100.0 mg/kg/injection, schedule: Q01DX009 (ip), vehicle: Klucel (hydroxypropylcellulose) (HPC)

Measured: T/C

ClC(Cl)(Cl)C/C=C\CBr
inactive: dose: 25.0 mg/kg/injection, schedule: Q01DX009 (ip), vehicle: acetone 98 % of control | dose: 50.0 mg/kg/injection, schedule: Q01DX009 (ip), vehicle: acetone 102 % of control | dose: 50.0 mg/kg/injection, schedule: Q04DX003 (ip), vehicle: acetone 97 % of control | dose: 100.0 mg/kg/injection, schedule: Q01DX001 (ip), vehicle: acetone 89 % of control | dose: 100.0 mg/kg/injection, schedule: Q01DX009 (ip), vehicle: acetone 93 % of control | dose: 100.0 mg/kg/injection, schedule: Q04DX003 (ip), vehicle: acetone 92 % of control | dose: 200.0 mg/kg/injection, schedule: Q01DX001 (ip), vehicle: acetone 91 % of control

Cn1c(CCN=C(N)CSS(=O)(=O)O)nc2ccccc21
inactive: [1] 91 % of control | [2] 105 % of control | [3] 105 % of control and 112 % of control

CC1([N+](=O)[O-])COP(=O)(Nc2ccc(Cl)cc2)OC1 (stereo not drawn)
inactive: dose: 100.0 mg/kg/injection, schedule: Q01DX001 (ip), vehicle: carboxymethylcellulose (CMC) 95 % of control | dose: 200.0 mg/kg/injection, schedule: Q01DX001 (ip), vehicle: carboxymethylcellulose (CMC) 93 % of control | dose: 400.0 mg/kg/injection, schedule: Q01DX001 (ip), vehicle: carboxymethylcellulose (CMC) 98 % of control

CC(N)CC12CC3CC(CC(C3)C1)C2 (stereo not drawn)
inactive: dose: 25.0 mg/kg/injection, schedule: Q04DX002 (ip), vehicle: saline 92 % of control | dose: 50.0 mg/kg/injection, schedule: Q04DX002 (ip), vehicle: saline 95 % of control | dose: 100.0 mg/kg/injection, schedule: Q04DX002 (ip), vehicle: saline 97 % of control

CCCCN(C)c1ccc(N=Nc2cc(Cl)ccc2Cl)cc1
inactive: dose: 100.0 mg/kg/injection, schedule: Q04DX003 (ip), vehicle: saline with Tween-80 98 % of control | dose: 400.0 mg/kg/injection, schedule: Q04DX003 (ip), vehicle: saline with Tween-80 86 % of control

CCC(C)C(=NC)Nc1ccc(Cl)c(Cl)c1 (stereo not drawn)
inactive: dose: 111.0 mg/kg/injection, schedule: Q01DX Z (ip), vehicle: methylcellulose (MC) 91 % of control

NC(=S)/C(N)=N/Nc1ccc(Cl)cc1
inactive: dose: 12.5 mg/kg/injection, schedule: Q01DX009 (ip), vehicle: saline with Tween-80 92 % of control | dose: 12.5 mg/kg/injection, schedule: Q01DX009 (ip), vehicle: saline 108 % of control | dose: 25.0 mg/kg/injection, schedule: Q01DX009 (ip), vehicle: saline with Tween-80 92 % of control | dose: 25.0 mg/kg/injection, schedule: Q01DX009 (ip), vehicle: saline 120 % of control | dose: 50.0 mg/kg/injection, schedule: Q01DX009 (ip), vehicle: saline 103 % of control

CC1CCCCC1OC(=O)CCN1CC1 (stereo not drawn)
inactive: dose: 3.0 mg/kg/injection, schedule: Q01DX009 (ip), vehicle: Klucel (hydroxypropylcellulose) (HPC) 94 % of control | dose: 6.0 mg/kg/injection, schedule: Q01DX009 (ip), vehicle: Klucel (hydroxypropylcellulose) (HPC) 94 % of control | dose: 12.0 mg/kg/injection, schedule: Q01DX009 (ip), vehicle: Klucel (hydroxypropylcellulose) (HPC) 100 % of control | [4] 94 % of control and 102 % of control | [5] 109 % of control | dose: 50.0 mg/kg/injection, schedule: Q04DX003 (ip), vehicle: Klucel (hydroxypropylcellulose) (HPC) 108 % of control | [6] 97 % of control and 108 % of control | [7] 104 % of control

CC1=CC(c2ccc3c(c2)OCO3)c2c(c3ccccc3oc2=O)O1 (stereo not drawn)
inactive: dose: 6.25 mg/kg/injection, schedule: Q01DX009 (ip), vehicle: water 98 % of control | dose: 12.5 mg/kg/injection, schedule: Q01DX009 (ip), vehicle: water 93 % of control | dose: 25.0 mg/kg/injection, schedule: Q01DX009 (ip), vehicle: water 100 % of control and 90 % of control | dose: 50.0 mg/kg/injection, schedule: Q01DX009 (ip), vehicle: water 86 % of control

C=C1C(=O)OC2/C=C(\C)CC/C=C(/C=O)C(OC)C(OC(=O)C(C)C)C12 (stereo not drawn)
inactive: dose: 6.25 mg/kg/injection, schedule: Q01DX009 (ip), vehicle: Klucel (hydroxypropylcellulose) (HPC) 95 % of control | dose: 12.5 mg/kg/injection, schedule: Q01DX009 (ip), vehicle: Klucel (hydroxypropylcellulose) (HPC) 100 % of control | [4] 101 % of control

COC(=O)C1C2C3CC(C4CC43)C12 (stereo not drawn)
inactive: dose: 100.0 mg/kg/injection, schedule: Q01DX009 (ip), vehicle: saline 92 % of control | dose: 100.0 mg/kg/injection, schedule: Q04DX003 (ip), vehicle: saline 93 % of control | dose: 200.0 mg/kg/injection, schedule: Q01DX009 (ip), vehicle: saline 92 % of control | dose: 200.0 mg/kg/injection, schedule: Q04DX003 (ip), vehicle: saline 107 % of control | dose: 400.0 mg/kg/injection, schedule: Q01DX009 (ip), vehicle: saline 96 % of control | dose: 400.0 mg/kg/injection, schedule: Q04DX003 (ip), vehicle: saline 96 % of control

COc1ccc(C)cc1NC(=O)NNS(=O)(=O)c1ccc(C)cc1
inactive: dose: 50.0 mg/kg/injection, schedule: Q01DX009 (ip), vehicle: saline with Tween-80 93 % of control | dose: 100.0 mg/kg/injection, schedule: Q01DX009 (ip), vehicle: saline with Tween-80 93 % of control | dose: 200.0 mg/kg/injection, schedule: Q01DX009 (ip), vehicle: saline with Tween-80 93 % of control

O=c1ccc(=O)c2c(=O)c3ccccc3c(=O)c1=2
inactive: [5] 97 % of control | [8] 95 % of control | [6] 101 % of control | [7] 103 % of control

Cc1cc(C)c(Nc2n[nH]c(=S)s2)cc1C
inactive: dose: 100.0 mg/kg/injection, schedule: Q04DX002 (ip), vehicle: saline with Tween-80 87 % of control | dose: 200.0 mg/kg/injection, schedule: Q04DX002 (ip), vehicle: saline with Tween-80 92 % of control | dose: 400.0 mg/kg/injection, schedule: Q04DX002 (ip), vehicle: saline with Tween-80 94 % of control

CCC(=O)OC1(c2ccccc2)CCN(C2CC2)CC1
inactive: dose: 25.0 mg/kg/injection, schedule: Q01DX001 (ip), vehicle: Klucel (hydroxypropylcellulose) (HPC) 92 % of control | dose: 50.0 mg/kg/injection, schedule: Q01DX001 (ip), vehicle: Klucel (hydroxypropylcellulose) (HPC) 97 % of control | dose: 100.0 mg/kg/injection, schedule: Q01DX001 (ip), vehicle: Klucel (hydroxypropylcellulose) (HPC) 100 % of control

NC(=O)c1cc(N2CC2)c([N+](=O)[O-])cc1[N+](=O)[O-]
inactive: dose: 5.0 mg/kg/injection, schedule: Q01DX001 (ip), vehicle: other 110 % of control | dose: 10.0 mg/kg/injection, schedule: Q01DX001 (ip), vehicle: other 98 % of control | dose: 10.0 mg/kg/injection, schedule: Q01DX009 (ip), vehicle: saline 105 % of control | dose: 20.0 mg/kg/injection, schedule: Q01DX001 (ip), vehicle: other 101 % of control | dose: 20.0 mg/kg/injection, schedule: Q01DX009 (ip), vehicle: saline 105 % of control | dose: 40.0 mg/kg/injection, schedule: Q01DX001 (ip), vehicle: other 106 % of control | dose: 40.0 mg/kg/injection, schedule: Q01DX009 (ip), vehicle: saline 113 % of control | dose: 50.0 mg/kg/injection, schedule: Q01DX001 (ip), vehicle: other 94 % of control | dose: 80.0 mg/kg/injection, schedule: Q01DX001 (ip), vehicle: other 97 % of control | dose: 100.0 mg/kg/injection, schedule: Q01DX001 (ip), vehicle: other 96 % of control

O=C1C(n2ccc(=O)[nH]c2=O)CCN1CCOCc1ccccc1 (stereo not drawn)
inactive: [8] 105 % of control | dose: 200.0 mg/kg/injection, schedule: Q01DX009 (ip), vehicle: Klucel (hydroxypropylcellulose) (HPC) 105 % of control | dose: 400.0 mg/kg/injection, schedule: Q01DX009 (ip), vehicle: Klucel (hydroxypropylcellulose) (HPC) 100 % of control

CCCCCC(=O)NNc1ccccc1
inactive: [1] 104 % of control | [2] 104 % of control | [3] 111 % of control | dose: 400.0 mg/kg/injection, schedule: Q04DX002 (ip), vehicle: Klucel (hydroxypropylcellulose) (HPC) 104 % of control

CCN(CC)c1ccc(/C=C(/S)C(=O)O)cc1
inactive: dose: 100.0 mg/kg/injection, schedule: Q01DX001 (ip), vehicle: saline 89 % of control | dose: 200.0 mg/kg/injection, schedule: Q01DX001 (ip), vehicle: saline 92 % of control | dose: 400.0 mg/kg/injection, schedule: Q01DX001 (ip), vehicle: saline 92 % of control
